pIC50: −log10 of the molar value.
Legend:
CDK1 = biological target: T1, CDK1 (Homo sapiens, UniProt P06493); assay: CDK-1 kinase screening assay (33P-ATP FlashPlate); format: biochemical; conditions: human CDK1 with cyclin B; 10 μM ATP; 1 hr at 30° C
T1 construct: purchased New England Biolabs, Beverly, Mass; 6020; host or cells: insect cells
Procedure: A kinase reaction mixture was prepared containing 50 mM Tris-HCl pH=8, 10 mM MgCl2, 0.1 mM […], 1 mM DTT, 10 μM ATP, 0.025 μM biotinylated histone-H1 peptide substrate and 0.2 μCuries per well ^33P-γ-ATP (2000-3000 Ci/mmol). 70 μL of the kinase reaction mixture was dispensed into the well of a streptavidin coated FlashPlate™ (Cat. # SMP103, NEN, Boston, Mass.).
Test compound stock in 100% DMSO (1 μL) was added to the wells resulting in a final concentration of 1% DMSO in the reaction with a 100 μL final reaction volume. Each enzyme was diluted in 50 mM Tris-HCl pH=8.0, 0.11% BSA and 30 μL was added to each well to initiate the reaction. The reaction was incubated for one hour at 30° C. At the end of the 1 hr incubation, the reaction was terminated by aspirating the mixture from the plate and washing the wells twice with PBS containing 100 mM EDTA. The biotinylated peptide substrate became immobilized on the Flashplate™ and the incorporation of ^33P-γ-ATP was measured by reading the plate on a scintillation counter. Inhibition of the enzymatic activity was measured by observing a reduced amount of ^33P-γ-ATP incorporated into the immobilized peptide.
The CDK1 enzyme was isolated from insect cells expressing both the human CDK1 catalytic subunit (Accession number NM_001786) and its positive regulatory subunit cyclin B (New England Biolabs, Beverly, Mass.; Cat. # 6020). The assay used 30 ng of the N-terminal biotinylated peptide biotin-[…]-amide (Cyclin dependent kinase 1) per well.
A maximum and minimum signal for the assay was determined on each plate. The percent inhibition of a test compound was calculated according to the formula: […]
For a series of test concentrations, the IC50 was derived by graphing percent inhibition against the log of the concentrations tested for a given compound with results shown in Table 1.
For compounds with multiple values, each value represents a separate assay result.

HER2 = biological target: T2, HER2 (Homo sapiens, UniProt P04626); assay: HER2 kinase screening assay (33P-ATP FlashPlate); format: biochemical; conditions: GST-HIS6 HER-2 aa 679 to 1255; 10 μM ATP; 1 hr at 30° C;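 note: Biotin-poly(GT) 4:1 peptide captured on streptavidin FlashPlate, 33P transfer from γ-ATP read by scintillation counting, lower incorporation means inhibition, 1% DMSO final, 100 µL reaction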
T2 construct: GST (Glutathione-S-Transferase) (N); HIS6 (N); thrombin cleavage site (N); purchased Proqinase, Freiburg, Germany
T2 sequence (P04626 679-1255): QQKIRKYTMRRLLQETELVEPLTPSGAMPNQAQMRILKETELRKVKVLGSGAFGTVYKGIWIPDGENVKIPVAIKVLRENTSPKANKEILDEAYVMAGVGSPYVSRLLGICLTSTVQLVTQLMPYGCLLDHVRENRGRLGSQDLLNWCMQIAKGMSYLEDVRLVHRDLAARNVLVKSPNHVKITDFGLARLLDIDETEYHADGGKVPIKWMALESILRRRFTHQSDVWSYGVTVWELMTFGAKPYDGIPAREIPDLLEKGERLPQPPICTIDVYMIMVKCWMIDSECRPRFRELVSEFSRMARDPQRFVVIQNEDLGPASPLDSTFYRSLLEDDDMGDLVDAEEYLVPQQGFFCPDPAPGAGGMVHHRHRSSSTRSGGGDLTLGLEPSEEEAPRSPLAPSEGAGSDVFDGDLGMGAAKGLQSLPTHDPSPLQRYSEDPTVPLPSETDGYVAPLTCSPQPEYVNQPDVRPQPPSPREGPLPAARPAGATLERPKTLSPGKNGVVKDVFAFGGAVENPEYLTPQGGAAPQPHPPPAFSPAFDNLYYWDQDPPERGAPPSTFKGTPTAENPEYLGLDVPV

HCT-116 colon carcinoma = assay: Cell Proliferation Inhibition Assay (14C-thymidine incorporation), HCT-116; format: cell-based; conditions: Homo sapiens;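 note: proliferation measured as methyl 14C-thymidine uptake into new DNA, counted in 96-well scintillating microplates, compared with DMSO-only control wells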
RET = biological target: T3, RET (Homo sapiens, UniProt P07949); assay: RET kinase screening assay (33P-ATP FlashPlate); format: biochemical; conditions: human RET kinase domain; 10 μM ATP; 1 hr at 30° C;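 note: biotinylated peptide substrate captured on streptavidin FlashPlate, 33P phosphate transfer read by scintillation counting, 1% DMSO, lower incorporation means inhibition, percent relative to per-plate maximum and minimum signals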
T3 construct: polyhistidine (N)
T3 sequence (P07949 658-1114 limits assumed): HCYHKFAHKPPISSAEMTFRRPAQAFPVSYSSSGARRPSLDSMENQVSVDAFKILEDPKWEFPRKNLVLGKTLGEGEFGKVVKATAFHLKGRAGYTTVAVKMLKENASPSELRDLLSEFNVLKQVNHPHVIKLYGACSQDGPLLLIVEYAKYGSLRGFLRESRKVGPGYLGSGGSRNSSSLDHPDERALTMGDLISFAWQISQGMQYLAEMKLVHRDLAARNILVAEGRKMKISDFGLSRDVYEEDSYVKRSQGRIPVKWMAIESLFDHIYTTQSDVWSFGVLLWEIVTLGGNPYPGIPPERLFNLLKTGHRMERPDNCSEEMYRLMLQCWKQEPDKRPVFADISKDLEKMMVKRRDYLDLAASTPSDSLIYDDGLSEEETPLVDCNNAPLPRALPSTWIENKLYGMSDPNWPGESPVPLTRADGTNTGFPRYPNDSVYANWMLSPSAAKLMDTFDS

Aurora-A = biological target: T4, Aurora-A (Mus musculus, UniProt P97477); assay: Aurora-A kinase screening assay (33P-ATP FlashPlate); format: biochemical; conditions: 10 μM ATP, 1 hr at 30° C;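 note: His-tagged mouse Aurora-A phosphorylating a biotinylated peptide captured on streptavidin plates, read as 33P uptake by scintillation counting, 1% DMSO, inhibition scaled between per-plate maximum and minimum signals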
T4 construct: polyhistidine (N)
T4 sequence (P97477 1-395): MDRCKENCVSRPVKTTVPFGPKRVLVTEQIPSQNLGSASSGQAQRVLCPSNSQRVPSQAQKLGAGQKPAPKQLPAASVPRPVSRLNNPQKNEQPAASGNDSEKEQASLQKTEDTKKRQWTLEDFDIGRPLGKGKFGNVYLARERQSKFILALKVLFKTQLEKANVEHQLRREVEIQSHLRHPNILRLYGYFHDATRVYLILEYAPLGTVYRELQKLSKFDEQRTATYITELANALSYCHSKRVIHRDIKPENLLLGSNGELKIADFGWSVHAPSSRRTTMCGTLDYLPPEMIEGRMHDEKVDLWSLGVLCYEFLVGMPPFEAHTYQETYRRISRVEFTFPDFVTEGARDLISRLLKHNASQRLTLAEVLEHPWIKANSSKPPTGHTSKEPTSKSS

VEGF-R2 = biological target: T5, VEGF-R2 (Rattus norvegicus, UniProt O08775); assay: VEGF-R2 kinase screening assay (33P-ATP FlashPlate); format: biochemical; conditions: rat VEGF-R2 kinase domain; 10 μM ATP; 1 hr at 30° C;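 note: Read-out is ³³P incorporation from ³³P-γ-ATP into biotinylated peptide substrate captured on streptavidin FlashPlate, counted by scintillation, 1% DMSO final, inhibition scaled between per-plate maximum and minimum signals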
T5 construct: polyhistidine (N)
T5 sequence (O08775 786-1343): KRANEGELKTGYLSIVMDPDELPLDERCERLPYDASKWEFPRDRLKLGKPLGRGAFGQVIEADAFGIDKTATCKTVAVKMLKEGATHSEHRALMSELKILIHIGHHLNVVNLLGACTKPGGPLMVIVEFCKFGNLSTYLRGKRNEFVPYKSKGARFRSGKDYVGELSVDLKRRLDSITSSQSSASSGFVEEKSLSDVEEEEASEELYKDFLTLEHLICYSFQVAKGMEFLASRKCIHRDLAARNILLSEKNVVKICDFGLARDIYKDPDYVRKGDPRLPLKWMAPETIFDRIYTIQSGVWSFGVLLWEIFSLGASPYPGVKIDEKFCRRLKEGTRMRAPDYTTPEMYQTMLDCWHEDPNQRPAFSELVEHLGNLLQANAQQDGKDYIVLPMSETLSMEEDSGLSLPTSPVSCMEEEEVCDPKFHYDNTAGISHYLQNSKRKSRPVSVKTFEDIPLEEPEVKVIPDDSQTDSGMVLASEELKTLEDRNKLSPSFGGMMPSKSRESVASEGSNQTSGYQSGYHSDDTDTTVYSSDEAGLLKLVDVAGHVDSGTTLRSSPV

[1] = test system: HeLa cervical adenocarcinoma; assay: Cell Proliferation Inhibition Assay (14C-thymidine incorporation), HeLa; format: cell-based; conditions: Homo sapiens, HeLa cells;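 note: test compound in DMSO added to cells seeded in scintillating 96-well plates, DMSO-only wells as control, uptake of methyl 14C-thymidine into new DNA counted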
A375 malignant melanoma = assay: Cell Proliferation Inhibition Assay (14C-thymidine incorporation), A375; format: cell-based; conditions: Homo sapiens, A-375, A375 cells;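 note: proliferation measured by radiolabelled thymidine uptake into new DNA, counted in scintillating 96-well plates, compound-treated wells compared with DMSO-only control wells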

T1 sequence (P06493 whole entry): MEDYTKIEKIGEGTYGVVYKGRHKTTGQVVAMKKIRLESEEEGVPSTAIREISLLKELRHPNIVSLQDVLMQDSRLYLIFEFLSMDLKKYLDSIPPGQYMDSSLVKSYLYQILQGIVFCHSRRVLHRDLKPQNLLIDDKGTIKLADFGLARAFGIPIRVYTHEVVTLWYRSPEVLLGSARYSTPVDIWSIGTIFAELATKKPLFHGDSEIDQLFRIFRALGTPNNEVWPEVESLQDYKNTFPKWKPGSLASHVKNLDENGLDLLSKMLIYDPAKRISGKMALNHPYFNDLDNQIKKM
T1 sequence (P14635 whole entry partner): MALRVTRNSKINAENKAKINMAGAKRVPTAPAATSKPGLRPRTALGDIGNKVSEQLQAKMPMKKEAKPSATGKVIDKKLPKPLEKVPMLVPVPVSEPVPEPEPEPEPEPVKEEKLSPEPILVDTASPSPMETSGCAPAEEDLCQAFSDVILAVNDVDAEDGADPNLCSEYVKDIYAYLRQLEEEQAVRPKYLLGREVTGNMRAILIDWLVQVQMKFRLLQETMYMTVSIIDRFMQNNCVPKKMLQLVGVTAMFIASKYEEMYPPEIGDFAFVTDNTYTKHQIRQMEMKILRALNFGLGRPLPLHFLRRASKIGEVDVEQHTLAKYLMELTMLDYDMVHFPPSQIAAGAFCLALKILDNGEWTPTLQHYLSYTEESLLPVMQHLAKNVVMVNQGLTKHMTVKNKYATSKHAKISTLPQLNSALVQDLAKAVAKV

| pIC50 (CDK1) | pIC50 (HER2) | pIC50 (HCT-116 colon carcinoma; HCT-116, HCT-116 cells) | pIC50 (RET) | pIC50 (Aurora-A) | pIC50 (VEGF-R2) | pIC50 ([1]; HeLa) | pIC50 (A375 malignant melanoma) | Compound | pIC50 (HCT-116 colon carcinoma; HCT-116 cells) | pIC50 [1] |
| --- | --- | --- | --- | --- | --- | --- | --- | --- | --- | --- |
| 7.38 | 6.61 | 6.05 | < 4.00 | < 5.00 | < 4.00 | 5.76 |  | OCc1cccc2[nH]c(-c3n[nH]c4ncc(-c5cncc6ccccc56)cc34)nc12 [Cpd 3, [2-(5-isoquinolin-4-yl-1H-pyrazolo[3,4-b]pyridin-3-yl)-1H-benzoimidazol-4-yl]-methanol] |  |  |
| 8.25 | 7.07 | 8.00 | < 5.00 | 6.49 | 6.34 | 7.83 | 8.00 | COCc1cccc2[nH]c(-c3n[nH]c4ncc(-c5cncc6ccccc56)cc34)nc12 [Cpd 4, 4-[3-(4-methoxymethyl-1H-benzoimidazol-2-yl)-1H-pyrazolo[3,4-b]pyridin-5-yl]-isoquinoline] |  |  |
| 7.38 |  | 5.72 | ~4.00 | ~5.00 | ~5.00 | 5.50 | 5.39 | c1ccc2c(-c3cnc4[nH]nc(-c5nc6c(Cn7ccnc7)cccc6[nH]5)c4c3)cncc2c1 [Cpd 12, 4-[3-(4-imidazol-1-ylmethyl-1H-benzoimidazol-2-yl)-1H-pyrazolo[3,4-b]pyridin-5-yl]-isoquinoline] |  |  |
| 7.89 | < 4.00 | 6.96 | < 4.00 | 5.44 | ~6.00 | 6.87 | 6.85 | CC(C)NCc1cccc2[nH]c(-c3n[nH]c4ncc(-c5cncc6ccccc56)cc34)nc12 [Cpd 13, isopropyl-[2-(5-isoquinolin-4-yl-1H-pyrazolo[3,4-b]pyridin-3-yl)-1H-benzoimidazol-4-ylmethyl]-amine] |  |  |
| 7.14 | < 4.00 | 6.51 | ~4.00 | < 6.00 | 5.34 | 6.00 | 6.19 | COCCOCc1cccc2[nH]c(-c3n[nH]c4ncc(-c5cncc6ccccc56)cc34)nc12 [Cpd 14, 4-{3-[4-(2-methoxy-ethoxymethyl)-1H-benzoimidazol-2-yl]-1H-pyrazolo[3,4-b]pyridin-5-yl}-isoquinoline] |  |  |
| 7.48 | ~4.00 | 5.24 | 6.03 | 5.64 | ~6.00 | 5.07 | 5.12 | c1ccc2c(-c3cnc4[nH]nc(-c5nc6c(COCCN7CCOCC7)cccc6[nH]5)c4c3)cncc2c1 [Cpd 15, 4-{3-[4-(2-morpholin-4-yl-ethoxymethyl)-1H-benzoimidazol-2-yl]-1H-pyrazolo[3,4-b]pyridin-5-yl}-isoquinoline] |  |  |
| ~5.00 | < 4.00 |  | < 4.00 | ~4.00 | ~4.00 | 4.98 | 5.13 | COC(=O)c1cccc2[nH]c(-c3n[nH]c4ncc(-c5cncc6ccccc56)cc34)nc12 [Cpd 108, 2-(5-isoquinolin-4-yl-1H-pyrazolo[3,4-b]pyridin-3-yl)-1H-benzoimidazole-4-carboxylic acid methyl ester] |  |  |

The next lines start with the molecule.

| Compound | pIC50 (CDK1) | pIC50 (HER2) | pIC50 (HCT-116 colon carcinoma; HCT-116, HCT-116 cells) | pIC50 (RET) | pIC50 (Aurora-A) | pIC50 (VEGF-R2) | pIC50 ([1]; HeLa) | pIC50 (A375 malignant melanoma) | pIC50 (HCT-116 colon carcinoma; HCT-116 cells) | pIC50 [1] |
| --- | --- | --- | --- | --- | --- | --- | --- | --- | --- | --- |
| CCN(CC)Cc1cccc2[nH]c(-c3n[nH]c4ncc(Br)cc34)nc12 [Cpd 6, [2-(5-bromo-1H-pyrazolo[3,4-b]pyridin-3-yl)-1H-benzoimidazol-4-ylmethyl]-diethyl-amine] | 7.11 | 7.05 | 6.59 | < 5.00 | 6.01 | 6.02 | 6.45 | 6.59 |  |  |
| c1ccc2c(-c3cnc4[nH]nc(-c5nc6c(CN7CCCC7)cccc6[nH]5)c4c3)cncc2c1 [Cpd 7, 4-[3-(4-pyrrolidin-1-ylmethyl-1H-benzoimidazol-2-yl)-1H-pyrazolo[3,4-b]pyridin-5-yl]-isoquinoline] | 8.31 |  | 7.19 | < 5.00 | 5.76 | 5.80 | 6.95 | 7.08 |  |  |
| c1ccc2c(-c3cnc4[nH]nc(-c5nc6c(CN7CCCCC7)cccc6[nH]5)c4c3)cncc2c1 [Cpd 8, 4-[3-(4-piperidin-1-ylmethyl-1H-benzoimidazol-2-yl)-1H-pyrazolo[3,4-b]pyridin-5-yl]-isoquinoline] | 8.09 |  | 7.55 | < 5.00 | 5.86 | 6.39 | 7.31 | 7.53 |  |  |
| c1ccc2c(-c3cnc4[nH]nc(-c5nc6c(CN7CCOCC7)cccc6[nH]5)c4c3)cncc2c1 [Cpd 9, 4-[3-(4-morpholin-4-ylmethyl-1H-benzoimidazol-2-yl)-1H-pyrazolo[3,4-b]pyridin-5-yl]-isoquinoline] | 8.07 |  | 7.19 | ~5.00 | ~5.00 | 6.68 | 7.03 | 7.08 |  |  |
| CCN1CCN(Cc2cccc3[nH]c(-c4n[nH]c5ncc(-c6cncc7ccccc67)cc45)nc23)CC1 [Cpd 10, 4-{3-[4-(4-ethyl-piperazin-1-ylmethyl)-1H-benzoimidazol-2-yl]-1H-pyrazolo[3,4-b]pyridin-5-yl}-isoquinoline] | 7.80 |  | 6.72 | < 5.00 | 5.17 | 6.79 | 6.90 | 6.93 |  |  |
| COCc1cccc2[nH]c(-c3n[nH]c4ncc(-c5cnc6ccccc6c5)cc34)nc12 [Cpd 34, 3-[3-(4-methoxymethyl-1H-benzoimidazol-2-yl)-1H-pyrazolo[3,4-b]pyridin-5-yl]-quinoline] | 5.87 |  |  | ~5.00 | < 5.00 | 6.80 | 5.83 | 7.97 |  |  |
| CN1CCN(c2ccc3[nH]c(-c4n[nH]c5ncc(-c6cccnc6)cc45)nc3c2)CC1 [Cpd 89, 3-[5-(4-methyl-piperazin-1-yl)-1H-benzoimidazol-2-yl]-5-pyridin-3-yl-1H-pyrazolo[3,4-b]pyridine] |  | 4.50 | 6.37 | 6.72 | 6.65 | 7.32 | 6.21 | 6.26 |  |  |
| CCCCNCc1cncc(-c2cnc3[nH]nc(-c4nc5cc(OC)ccc5[nH]4)c3c2)c1 [Cpd 104, butyl-{5-[3-(5-methoxy-1H-benzoimidazol-2-yl)-1H-pyrazolo[3,4-b]pyridin-5-yl]-pyridin-3-ylmethyl}-amine] | 9.10 | 5.73 |  |  | 6.61 | 7.75 |  | 7.40 | 7.28 | 7.07 |
